According to patent US7250278B2, “α-keto acid reductase, method for producing the same, and method for producing optically active α-hydroxy acids using the same” (Daicel Chemical Industries, Ltd., priority 2002, dated 2007):

B1: α-keto acid reductase: NADH-dependent α-keto acid reductase purified from Leuconostoc mesenteroides subsp. dextranicum ATCC 17072; amino acid sequence SEQ ID NO: 2 (protein)
chain: MKIAIAGFGALGARLGVMLQAGGHEVTGIDGWPAHIAAINTKGLTVVKDNDAPQKYFVPVMPASEVTGTFDLIILLTKTPQLDRMLTDIQPIITDTTKLLVLSNGLGNIEVMAKHVSRHQILAGVTLWTSSLIKPGEIHVTGSGSIKLQAIGDADVQSIADALNQAGLNAEITPDVMTAIWHKAGINAVLNPLSVLLNANIAEFGTAGNAMDLALNILDEMKQVGASQGIKVDVSGIMTDLSQLLKPENAGNHFPSMYQDIQNGKRTEIDFLNGYFAKIGHESGIPTPFNALVTRLIHAKEDIERVKLAKQQENFEI
modifications: Leuconostoc mesenteroides

Test system: α-keto acid reductase
Assay: Substrate specificity of α-keto acid reductase (reduction reaction)
Format: biochemical, Leuconostoc mesenteroides subsp. dextranicum
Conditions: coenzyme NADH, substrate 1 mM; reduction activity of 2-chlorophenyl glyoxylic acid taken as 100
Protocol: (§1) The enzyme obtained in Example 9 was incubated with various α-keto acids, ketones, ketols, etc. The activities of the reduction reaction are shown in Table 8, defined as relative activities taking the reduction activity of 2-chlorophenyl glyoxylic acid as 100.

Going from `O=C(O)C(=O)c1ccccc1Cl` [2-chlorophenyl glyoxylic acid] to `O=C(O)C(=O)c1ccccc1` [phenyl glyoxylic acid], the Relative activity falls from 100.0% to 12.9%.

Going from `O=C(O)C(=O)c1cccc(Cl)c1` [3-chlorophenyl glyoxylic acid] to `O=C(O)C(=O)Cc1ccccc1` [α-keto-4-phenylpyruvic acid], the Relative activity falls from 4.5% to 0.1%.

Going from `CC(=O)C(=O)O` [pyruvic acid] to `CCC(=O)C(=O)O` [α-ketobutyric acid], the Relative activity rises from 0.0% to 0.4%.

First: CC(C)(C)C(=O)C(=O)O [trimethyl pyruvic acid]
Second: CC(C)C(=O)C(=O)O [α-ketoisovaleric acid]
The Relative activity of the first is lower: 0.1% for the first, 19.3% for the second.

Compared with `CCCCC(=O)C(=O)O` [α-ketocaproic acid], `CCCC(=O)C(=O)O` [α-ketovaleric acid] is lower in Relative activity: 4.3% for the first, 3.1% for the second.

Going from `CC(C)CC(=O)C(=O)O` [α-ketoisocaproic acid] to `O=C(O)C(=O)Cc1ccccc1` [β-phenylpyruvic acid], the Relative activity falls from 14.7% to 0.3%.

Same assay, conditions: coenzyme NADH, substrate 5 mM; reduction activity of 2-chlorophenyl glyoxylic acid taken as 100

Work on `CC(C)(CO)C(=O)C(=O)O` [keto pantoic acid] yielded a Relative activity of 3.1%.

Same assay, conditions: coenzyme NADPH, substrate 1 mM; NADH reduction of 2-chlorophenyl glyoxylic acid taken as 100

Molecule `O=C(O)C(=O)c1ccccc1Cl` [2-chlorophenyl glyoxylic acid] has a Relative activity of 0.4%.

Test system: α-keto acid reductase
Assay: Dehydrogenase activity of α-keto acid reductase against 2-chloromandelic acid
Format: biochemical, Leuconostoc mesenteroides subsp. dextranicum
Conditions: coenzyme NAD^+, substrate 1 mM; reduction activity of 2-chlorophenyl glyoxylic acid taken as 100
Protocol: In the present invention, the dehydrogenase activity against 2-chloromandelic acid of an enzyme can be confirmed by the following assay procedure:incubate the enzyme at 30° C. in a reaction solution of 50 mM Tris-HCl buffer (pH 8.5) containing 2.5 mM NAD^+, and 1 mM 2-chloromandelic acid; and measure the increase in absorbance at 340 nm associated with the generation of NADH. 1 U is defined as an amount of enzyme that catalyzes the production of 1 μmol NADH in one minute.
as §1

Compared with `O=C(O)C(O)c1ccccc1Cl` (racemic) [(R,S)-2-chloromandelic acid], `O=C(O)[C@H](O)c1ccccc1Cl` [(R)-2-chloromandelic acid] is higher in Relative activity: 0.022% for the first, 0.045% for the second.

Test system: not given
Assay: not given
Format: biochemical, Leuconostoc mesenteroides subsp. dextranicum
Conditions: purification steps from Leuconostoc mesenteroides subsp. dextranicum ATCC 17072, NADH-dependent
Protocol: Leuconostoc mesenteroides subsp. dextranicum strain (ATCC 17072) was cultured in 1.2 L of MRS medium (Lactobacilli MRS broth, Difco Laboratories), and then cells were harvested by centrifugation. The resulting wet cells were suspended in 50 mM Tris-HCl buffer (pH 8.5) containing 0.02% 2-mercaptoethanol and 2 mM phenylmethanesulfonyl fluoride (PMSF), and crushed with a bead beater (Biospec Products, Inc.). Then, cell debris was removed by centrifugation to prepare cell-free extract. Protamine sulfate was added to the cell-free extract and the mixture was centrifuged to prepare supernatant avoid of nucleic acid. Ammonium sulfate was added to the supernatant at a final concentration of 30%. […] NADH-dependent 2-chlorophenyl glyoxylic acid-reducing activity was detected in fractions eluted with the gradient. […]
2-chlorophenyl glyoxylic acid-reducing activities of the enzyme obtained in Example 9 at various pHs were determined by changing the pH with the use of potassium phosphate buffer, sodium acetate buffer, and Britten and Robinson broad-range buffer. […]
2-chlorophenyl glyoxylic acid-reducing activities of the enzyme obtained in Example 9 were measured under standard reaction conditions at various temperatures. […]

For B1, the Relative activity was 3810 U/mg.

Same assay, conditions: purified enzyme, single band on SDS-PAGE

For B1, the Specific activity was 3,810 U/mg.
